In patent US10738028B2, “Spiro three-membered ring, spiro five-membered ring peptide deformylase inhibitor and use thereof in antibacteria and anti-tumor” (priority 2016, dated 2020):
≈ marks a conversion by molar mass, not a printed value. Like-named read-outs stand apart in the source and are kept apart here.

Assays:
Assay type in all cases: cell-based
[1] = system: Enterococcus faecalis (EFA); assay: MIC, two-fold agar dilution (CLSI), clinical isolates
Summary of the method: (§1)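 Following the American Clinical and Laboratory Standards Institute procedure, agar two-fold dilution served to determine minimum inhibitory concentrations.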

[2] = system: Enterococcus faecium (EFM); assay: as above
Summary of the method: as §1

[3] = system: Escherichia coli (including ESBLs, non-ESBLs); assay: as above
Summary of the method: as §1

[4] = system: Moraxella catarrhalis (BCA); assay: as above
Summary of the method: as §1

[5] = system: Streptococcus pneoumoniae (SPN); assay: as above
Summary of the method: as §1

[6] = system: methicillin-resistant Staphylococcus aureus (MRSA); assay: as above
Summary of the method: as §1

[7] = system: methicillin-resistant Staphylococcus epidermidis (MRSE); assay: as above
Summary of the method: as §1

[8] = system: methicillin-sensitive Staphylococcus aureus (MSSA); assay: as above
Summary of the method: as §1

[9] = system: methicillin-sensitive Staphylococcus epidermidis (MSSE); assay: as above
Summary of the method: as §1

[10] = system: HCT-116 colorectal cancer cell line; assay: CCK-8 proliferation inhibition; conditions: Homo sapiens, HCT-116, 72 h, concentration of 30 μM, 72 hours, CCK-8
Summary of the method: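 Growth inhibition is read by CCK-8 (1:10 dilution) after 72 h of compound exposure. HCT-116 cells grow in McCoy's 5A containing 10% newborn bovine serum at 2000 cells/well, with 1‰ DMSO as vehicle control.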

[11] = system: A549 lung cancer cell line; assay: CCK-8 proliferation inhibition; conditions: Homo sapiens, A549, 72 h, concentration of 30 μM
Excerpt: (§2) 2. The present invention adopts the CCK-8 method to determine the proliferation inhibition effect of the spiro three-membered ring, spiro five-membered ring peptide deformylase inhibitor as described in Examples 1-80 against colorectal cancer cells, lung cancer cells, gastric cancer cells, liver cancer cells, and the like. […] The compound having the best activity synthesized in Example 64 was further tested for its inhibitory activity against other tumor cells including T cell leukemia, acute myeloid leukemia, cervical cancer, breast cancer, prostate cancer and osteosarcoma, and the like (see Table 7).
(§3) (1) HCT-116 colorectal cancer cell line, A549 lung cancer cell line, MGC-803 gastric cancer cell line, BEL-7402 liver cancer cell line, Jurkat T cell leukemia cell line, HL60 acute myeloid leukemia cell line, Hela cervical cancer cell line, MCF-7 breast cancer cell line, PC3 prostate cancer cell line and SAOS-2 osteosarcoma cell line were made into single cell suspension, 180 μL of which was inoculated into 96-well culture plate, which was cultured overnight in CO2 incubator (37° C., 5% CO2, 95% air).
(§4) (2) Each of the spiro three-membered ring, spiro five membered ring peptide deformylase inhibitors was dissolved in DMSO, and was further formulated into drug solution with required different final concentration using corresponding cell culture medium. The drug solutions were added to the above cells respectively (20 μL/well), with the control group added with 1‰ DMSO, and cultured in a CO2 incubator for 72 hours.
(§5) (3) After incubation for 72 hours, the culture solution was decanted, and 100 μL of 1:10 diluted CCK-8 solution was added.
(§6) Wherein, in step (1), the concentration of the single cell suspension was 2000 cells/well.
(§7) Wherein, in step (2), HCT-116 cells were cultured in McCoy's 5A medium (containing 10% newborn bovine serum, 1% double antibody); A549 and PC3 cells were cultured in F12 medium (containing 10% newborn bovine serum, 1% double antibody); MGC-803, BEL-7402, SAOS-2, Jurkat and HL60 cells were cultured in 1640 medium (containing 10% newborn bovine serum, 1% double antibody); and MCF-7 and Hela cells were cultured in DMEM high glucose medium (containing 10% newborn bovine serum, 1% double antibody).

[12] = system: BEL-7402 liver cancer cell line; assay: CCK-8 proliferation inhibition; conditions: concentration of 30 μM
Excerpt: as §2, §3, §4, §5, §6, §7

[13] = system: MGC-803 gastric cancer cell line; assay: CCK-8 proliferation inhibition; conditions: Homo sapiens, MGC-803, 72 h, concentration of 30 μM
Excerpt: as §2, §3, §4, §5, §6, §7

O=CN(O)C[C@@H](CC1CCCC1)C(=O)N1CC2(CC2)C[C@H]1C(=O)Nc1ccc(N2CCOCC2)cc1 [Example 25, (S)-5-((R)-3-cyclopentyl-2-((N-hydroxyformamido)methyl)propionyl)-N-(4-morpholinophenyl)-5-spiro[2.4]heptane-6-carboxamide]
MIC (anti-bacterial activity) ([1]; strain EFA 15-1): 2 µg/mL (≈ 4.01 µM)
MIC (anti-bacterial activity) ([1]; strain EFA 15-2): 2 µg/mL (≈ 4.01 µM)
MIC (anti-bacterial activity) ([1]; strain EFA 15-3): 0.5 µg/mL (≈ 1 µM)
MIC (anti-bacterial activity) ([1]; strain EFA 15-4): 2 µg/mL (≈ 4.01 µM)
MIC (anti-bacterial activity) ([1]; strain EFA 15-5): 2 µg/mL (≈ 4.01 µM)
MIC (anti-bacterial activity) ([1]; strain EFA 15-6): 2 µg/mL (≈ 4.01 µM)
MIC (anti-bacterial activity) ([1]; strain EFA 15-9): 2 µg/mL (≈ 4.01 µM)
MIC (anti-bacterial activity) ([2]; strain EFM 15-1): 1 µg/mL (≈ 2.01 µM)
MIC (anti-bacterial activity) ([2]; strain EFM 15-2): 0.5 µg/mL (≈ 1 µM)
MIC (anti-bacterial activity) ([2]; strain EFM 15-3): 0.5 µg/mL (≈ 1 µM)
MIC (anti-bacterial activity) ([2]; strain EFM 15-4): 0.25 µg/mL (≈ 0.501 µM)
MIC (anti-bacterial activity) ([2]; strain EFM 15-5): 0.5 µg/mL (≈ 1 µM)
MIC (anti-bacterial activity) ([2]; strain EFM 15-6): 1 µg/mL (≈ 2.01 µM)
MIC (anti-bacterial activity) ([3]; strain ECO+ 15-1): 32 µg/mL (≈ 64.2 µM)
MIC (anti-bacterial activity) ([3]; strain ECO+ 15-2): > 32 µg/mL
MIC (anti-bacterial activity) ([3]; strain ECO+ 15-3): > 32 µg/mL
MIC (anti-bacterial activity) ([3]; strain ECO+ 15-4): > 32 µg/mL
MIC (anti-bacterial activity) ([3]; strain ECO− 15-1): > 32 µg/mL
MIC (anti-bacterial activity) ([3]; strain ECO− 15-2): > 32 µg/mL
MIC (anti-bacterial activity) ([3]; strain ECO− 15-3): > 32 µg/mL
MIC (anti-bacterial activity) ([3]; strain ECO− 15-4): > 32 µg/mL
MIC (anti-bacterial activity) ([4]; strain BCA 14-1): 0.5 µg/mL (≈ 1 µM)
MIC (anti-bacterial activity) ([4]; strain BCA 14-4): 0.25 µg/mL (≈ 0.501 µM)
MIC (anti-bacterial activity) ([4]; strain BCA 14-5): 0.5 µg/mL (≈ 1 µM)
MIC (anti-bacterial activity) ([4]; strain BCA 14-6): 1 µg/mL (≈ 2.01 µM)
MIC (anti-bacterial activity) ([4]; strain BCA 14-7): 0.25 µg/mL (≈ 0.501 µM)
MIC (anti-bacterial activity) ([4]; strain BCA 14-8): 0.25 µg/mL (≈ 0.501 µM)
MIC (anti-bacterial activity) ([4]; strain BCA 14-10): 0.25 µg/mL (≈ 0.501 µM)
MIC (anti-bacterial activity) ([5]; strain SPN 16-2): 0.5 µg/mL (≈ 1 µM)
MIC (anti-bacterial activity) ([5]; strain SPN 16-4): 2 µg/mL (≈ 4.01 µM)
MIC (anti-bacterial activity) ([6]; strain MRSA 15-1): 0.25 µg/mL (≈ 0.501 µM)
MIC (anti-bacterial activity) ([6]; strain MRSA 15-2): 0.25 µg/mL (≈ 0.501 µM)
MIC (anti-bacterial activity) ([6]; strain MRSA 15-3): 0.25 µg/mL (≈ 0.501 µM)
MIC (anti-bacterial activity) ([6]; strain MRSA 15-4): 0.25 µg/mL (≈ 0.501 µM)
MIC (anti-bacterial activity) ([7]; strain MRSE 15-1): 0.06 µg/mL (≈ 0.12 µM)
MIC (anti-bacterial activity) ([7]; strain MRSE 15-2): 0.25 µg/mL (≈ 0.501 µM)
MIC (anti-bacterial activity) ([7]; strain MRSE 15-3): 0.25 µg/mL (≈ 0.501 µM)
MIC (anti-bacterial activity) ([7]; strain MRSE 15-7): 0.25 µg/mL (≈ 0.501 µM)
MIC (anti-bacterial activity) ([8]; strain MSSA 15-3): 0.25 µg/mL (≈ 0.501 µM)
MIC (anti-bacterial activity) ([8]; strain MSSA 15-4): 0.25 µg/mL (≈ 0.501 µM)
MIC (anti-bacterial activity) ([8]; strain MSSA 15-5): 0.25 µg/mL (≈ 0.501 µM)
MIC (anti-bacterial activity) ([8]; strain MSSA 15-6): 0.25 µg/mL (≈ 0.501 µM)
MIC (anti-bacterial activity) ([9]; strain MSSE 15-3): 0.25 µg/mL (≈ 0.501 µM)
MIC (anti-bacterial activity) ([9]; strain MSSE 15-4): 0.25 µg/mL (≈ 0.501 µM)
MIC (anti-bacterial activity) ([9]; strain MSSE 15-5): 0.25 µg/mL (≈ 0.501 µM)
MIC (anti-bacterial activity) ([9]; strain MSSE 15-6): 0.25 µg/mL (≈ 0.501 µM)
inhibition at 30 µM ([10]; Table 5, read-out: Inhibition of proliferation, Colorectal cancer HCT116): ≥ 30%
inhibition at 30 µM ([10]; read-out: HCT116 inhibition rate/%): 35%
inhibition at 30 µM [11]: 30%
inhibition at 30 µM ([12]; Homo sapiens, Bel-7402, 72 h): > 50%
Inhibition of proliferation, Liver cancer BEL-7402 ([12]; 72 hours, 30 µM): 65%
inhibition at 30 µM [13]: 27%
